Each molecule was assayed against T1, Histamine H3 receptor (Homo sapiens, UniProt Q9Y5N1) (assay: Displacement of [125I]Iodoproxyfan from recombinant human histamine H3 receptor expressed in HEK293 cells after 90 mins).
Format: cell-based

T1 sequence (Q9Y5N1 whole entry): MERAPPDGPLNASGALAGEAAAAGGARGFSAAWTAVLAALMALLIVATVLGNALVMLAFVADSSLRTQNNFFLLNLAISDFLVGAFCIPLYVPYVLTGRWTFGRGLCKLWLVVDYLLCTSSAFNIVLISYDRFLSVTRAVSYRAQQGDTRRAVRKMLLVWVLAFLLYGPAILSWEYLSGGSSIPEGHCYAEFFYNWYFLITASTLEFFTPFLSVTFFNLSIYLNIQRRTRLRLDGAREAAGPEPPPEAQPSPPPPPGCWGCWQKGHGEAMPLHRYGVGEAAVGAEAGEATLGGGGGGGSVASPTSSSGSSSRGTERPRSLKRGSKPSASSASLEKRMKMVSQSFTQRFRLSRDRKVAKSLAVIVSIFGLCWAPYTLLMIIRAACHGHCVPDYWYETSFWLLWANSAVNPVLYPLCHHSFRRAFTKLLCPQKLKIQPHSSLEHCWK

`O=C1CCN(Cc2ccc(OCCCN3CCCCC3)cc2)CC1` and `CCNC(=O)C1CCN(Cc2ccc(OCCCN3CCCCC3)cc2)CC1` are within 1.5-fold of each other in Ki: 2.51 nM for the first, 2.95 nM for the second.

`c1ccc2c(c1)CCN(Cc1ccc(OCCCN3CCCCC3)cc1)C2` and `c1cc(OCCCN2CCCCC2)ccc1CN1CCC2(CC1)OCCO2` are within 1.5-fold of each other in Ki: 2.95 nM for the first, 2.04 nM for the second.

With `C#CCNC(=O)C1CCN(Cc2ccc(OCCCN3CCCCC3)cc2)CC1` the Ki was 11 nM.

These molecules were tested against T1, Histamine H3 receptor (assay: Displacement of [3H]N-alpha-methylhistamine from recombinant human histamine H3 receptor expressed in HEK293 cells after 90 mins).
Format: cell-based

`OC1CCN(Cc2ccc(OCCCN3CCCCC3)cc2)CC1` and `OCC1CCN(Cc2ccc(OCCCN3CCCCC3)cc2)CC1` are within 1.5-fold of each other in Ki: 0.589 nM for the first, 0.676 nM for the second.

First: CCOC(=O)C1CCN(Cc2ccc(OCCCN3CCCCC3)cc2)CC1
Second: O=C(O)C1CCN(Cc2ccc(OCCCN3CCCCC3)cc2)CC1
The Ki of the first is 56-fold lower: 0.229 nM for the first, 12.9 nM for the second.

`Cc1nnc(C2CCN(Cc3ccc(OCCCN4CCCCC4)cc3)CC2)o1` was tested, and the Ki was 0.479 nM.

Each molecule was assayed against Histamine H3 receptor (Rattus norvegicus, UniProt Q9QYN8) (assay: Binding affinity to rat histamine H3 receptor).
Sequence of Histamine H3 receptor (Rattus norvegicus, UniProt Q9QYN8) (Q9QYN8 whole entry): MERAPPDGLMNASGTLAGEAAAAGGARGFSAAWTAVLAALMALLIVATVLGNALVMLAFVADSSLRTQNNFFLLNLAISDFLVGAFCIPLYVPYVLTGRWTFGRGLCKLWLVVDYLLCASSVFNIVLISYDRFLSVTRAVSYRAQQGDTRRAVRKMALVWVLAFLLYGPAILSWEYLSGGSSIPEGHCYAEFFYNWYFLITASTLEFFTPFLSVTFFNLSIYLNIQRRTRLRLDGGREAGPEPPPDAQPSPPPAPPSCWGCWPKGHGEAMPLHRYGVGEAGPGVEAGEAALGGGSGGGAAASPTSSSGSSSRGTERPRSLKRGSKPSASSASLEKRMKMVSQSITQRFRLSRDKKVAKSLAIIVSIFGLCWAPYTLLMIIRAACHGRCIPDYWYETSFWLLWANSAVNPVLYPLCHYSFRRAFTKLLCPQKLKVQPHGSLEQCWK

`c1cc(OCCCN2CCCCC2)ccc1CN1CCCCC1` [JNJ-5207852] gave a Ki of 0.58 nM.

Source: ChEMBL document CHEMBL3259594, “Benzylpiperidine variations on histamine H3 receptor ligands for improved drug-likeness” (Bioorg Med Chem Lett, 2014)
